The values that follow come from patent US11046681B2, “Substituted piperidines for the treatment of cancer” (LES LABORATOIRES SERVIER, priority 2016, dated 2021).

Assay [1] concerns MM1S multiple myeloma tumour cell line. The experiment in a line: In vitro cytotoxicity, Microculture Tetrazolium Assay (MTT) on MM1S cells. It is filed as cell-based. Particulars: Homo sapiens, MM1.S, exposed for 96 hours, cell viability by MTT. The procedure: The cytotoxicity studies were carried out on the MM1S multiple myeloma tumour cell line. The cells are distributed onto microplates and exposed to the test compounds for 96 hours. The cell viability is then quantified by a colorimetric assay, the Microculture Tetrazolium Assay (Cancer Res., 1987, 47, 939-942).

Assay [2] concerns the target His-His-USP7 (aa208-560, [C315A]) (Homo sapiens (Human), UniProt Q93009, C315A). Put plainly: Evaluation of the inhibition of USP7 by Fluorescence Intensity (FLINT) readings. In kind it is biochemical. Particulars: 0.25 nM USP7, 60 minutes at 30° C. preincubation, 500 nM Ubiquitin-Rhodamine-110 substrate, 50% reduction in kinetic rate. The procedure:
USP7 activity was measured using Rhodamine-110 c-terminal labelled Ubiquitin as a substrate (Viva Biosciences). Incubation with USP7 results in the release of Rhodamine-110 leading to an increase in fluorescence which can be used in the continuous measurement of USP7 activity.
The USP7 reactions were performed in a 50 μL volume, in 384 well black solid low binding plates (Corning #3575). The reaction buffer consisted of 100 mM Bicine pH 8.0, 0.01% TritonX100, 1 mM TCEP, and 10% DMSO.
0.25 nM His-His-USP7 (aa208-560, [C315A]) was incubated with compound (final concentration 10% DMSO) for 60 minutes at 30° C. The reaction was then initiated by the addition of 500 nM Ubiquitin-Rhodamine-110 substrate and the plate read every 3 minutes for 21 minutes to measure the release of Rhodamine-110. Fluorescence Intensity (FLINT) readings were measured using a […] Neo plate reader (Ex.485 nm, Em.535 nm).
The inhibition of increasing doses of compound was expressed as a percentage reduction in kinetic rate compared to the kinetic rates established between ‘DMSO only’ and ‘total inhibition’ controls (no USP7). The inhibitory concentrations that gave a 50% reduction in kinetic rate (IC50) were determined, from 11-point dose response curves, in XL-Fit using a 4-Parameter Logistic Model (Sigmoidal Dose-Response Model).

Chain of His-His-USP7 (aa208-560, [C315A]) (Q93009 208-560 C315A): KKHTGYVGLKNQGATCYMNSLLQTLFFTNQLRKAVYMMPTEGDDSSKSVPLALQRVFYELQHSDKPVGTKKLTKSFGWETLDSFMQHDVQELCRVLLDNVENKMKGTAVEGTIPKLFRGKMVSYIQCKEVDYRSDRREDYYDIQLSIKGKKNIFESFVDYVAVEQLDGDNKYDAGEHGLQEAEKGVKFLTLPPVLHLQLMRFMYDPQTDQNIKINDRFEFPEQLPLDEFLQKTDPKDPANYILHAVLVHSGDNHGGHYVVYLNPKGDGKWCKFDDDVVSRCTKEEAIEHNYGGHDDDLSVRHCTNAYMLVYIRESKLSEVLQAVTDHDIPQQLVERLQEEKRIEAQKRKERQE

For orientation: IC50 means the concentration needed to halve the response being measured. Low readings indicate inhibition by little substance, high ones a need for much substance. As to `COc1ccc(-n2ccc3c(=O)n(CC4(O)CCN(C(=O)[C@@H]5CCN(C(=O)OC(C)(C)C)C[C@H]5c5ccccc5)CC4)cnc32)cc1` [EXAMPLE 40, tert-butyl (3R,4R)-4-[4-hydroxy-4-[[7-(4-methoxyphenyl)-4-oxo-pyrrolo[2,3-d]pyrimidin-3-yl]methyl]piperidine-1-carbonyl]-3-phenyl-piperidine-1-carboxylate], the half-inhibitory concentration (IC50) in assay [1] worked out at 31.5 nM; in assay [2], 49.9 nM.

With `O=C([C@@H]1CCNC[C@H]1c1ccccc1)N1CCC(O)(Cn2cnc3c(ccn3-c3ccccc3)c2=O)CC1` [EXAMPLE 101, 3-[[4-hydroxy-1-[(3R,4R)-3-phenylpiperidine-4-carbonyl]-4-piperidyl]methyl]-7-phenyl-pyrrolo[2,3-d]pyrimidin-4-one], the IC50 in assay [1] amounted to 272 nM; in assay [2] it was 31.6 nM.

With `COc1ccc(-n2ncc3c(=O)n(CC4(O)CCN(C(=O)[C@@H]5CC[N+](C)(C)C[C@H]5c5ccccc5)CC4)cnc32)cc1` [EXAMPLE 169, 5-[[1-[(3R,4R)-1,1-dimethyl-3-phenyl-piperidin-1-ium-4-carbonyl]-4-hydroxy-4-piperidyl]methyl]-1-(4-methoxyphenyl)pyrazolo[3,4-d]pyrimidin-4-one], the IC50 in assay [2] worked out at 860 nM.

With `COc1ccc(-n2ccc3c(=O)n(CC4(O)CCN(C(=O)[C@@H]5CCNC[C@H]5c5ccccc5)CC4)cnc32)cc1` [EXAMPLE 135, 3-[[4-hydroxy-1-[(3R,4R)-3-phenylpiperidine-4-carbonyl]-4-piperidyl]methyl]-7-(4-methoxyphenyl)pyrrolo[2,3-d]pyrimidin-4-one], the IC50 in assay [1] stood at 135 nM; in assay [2], 28.7 nM.

Consider `COc1ccc(-n2ccc3c(=O)n(CC4(O)CCN(C(=O)[C@@H]5CCN(C)C[C@H]5c5ccccc5)CC4)cnc32)cc1` [EXAMPLE 151, 3-[[4-hydroxy-1-[(3R,4R)-1-methyl-3-phenyl-piperidine-4-carbonyl]-4-piperidyl]methyl]-7-(4-methoxyphenyl)pyrrolo[2,3-d]pyrimidin-4-one], for which the IC50 in assay [2] was 52.4 nM.

`CC(C)(C)CC(=O)N1CC[C@@H](C(=O)N2CCC(O)(Cn3cnc4c(ccn4-c4ccccc4)c3=O)CC2)[C@H](c2ccccc2)C1` [EXAMPLE 187, 3-[[1-[(3R,4R)-1-(3,3-dimethylbutanoyl)-3-phenyl-piperidine-4-carbonyl]-4-hydroxy-4-piperidyl]methyl]-7-phenyl-pyrrolo[2,3-d]pyrimidin-4-one] had an IC50 in assay [2] of 88.5 nM.

Regarding `O=C([C@@H]1CCNC[C@H]1c1ccccc1)N1CCC(O)(Cn2cnc3c(cnn3-c3ccc4c(c3)OCCO4)c2=O)CC1` [EXAMPLE 165, 1-(2,3-dihydro-1,4-benzodioxin-6-yl)-5-[[4-hydroxy-1-[(3R,4R)-3-phenylpiperidine-4-carbonyl]-4-piperidyl]methyl]pyrazolo[3,4-d]pyrimidin-4-one], the half-maximal inhibitory concentration (IC50) in assay [1] was found to be 300 nM; in assay [2] it was 19.6 nM.

For the molecule `O=C([C@@H]1CCNC[C@H]1c1ccccc1)N1CCC(O)(Cn2cnc3c(ccn3-c3ccc(Cl)cc3)c2=O)CC1` [EXAMPLE 143, 7-(4-chlorophenyl)-3-[[4-hydroxy-1-[(3R,4R)-3-phenylpiperidine-4-carbonyl]-4-piperidyl]methyl]pyrrolo[2,3-d]pyrimidin-4-one], in assay [2], the IC50 was 41.2 nM.

For the molecule `CN1CC[C@@H](C(=O)N2CCC(O)(Cn3cnc4c(ccn4-c4ccc(Cl)cc4)c3=O)CC2)[C@H](c2ccccc2)C1` [EXAMPLE 153, 7-(4-chlorophenyl)-3-[[4-hydroxy-1-[(3R,4R)-1-methyl-3-phenyl-piperidine-4-carbonyl]-4-piperidyl]methyl]pyrrolo[2,3-d]pyrimidin-4-one], the values for the IC50 in assay [1] and in assay [2] were 74.7 nM and 48.6 nM, respectively.

On to `CC(=O)N1CC[C@@H](C(=O)N2CCC(O)(Cn3cnc4c(ccn4-c4cccc(Cl)c4)c3=O)CC2)[C@H](c2ccccc2)C1` [EXAMPLE 180, 3-[[1-[(3R,4R)-1-acetyl-3-phenyl-piperidine-4-carbonyl]-4-hydroxy-4-piperidyl]methyl]-7-(3-chlorophenyl)pyrrolo[2,3-d]pyrimidin-4-one], for which the concentration for half-maximal inhibition (IC50) in assay [2] was determined as 89 nM.
